What was measured:
[1] = tested on: BRCA1/2 mutant population; conditions: maintenance therapy; cited from earlier work
HCC1395 cells = assay: MTT assay with PARP inhibitors with or without zelpolib; assay type: cell-based, human; conditions: for sensitivity of HCC1395 cells to the PARP inhibitor alone: HR-proficient triple-negative breast cancer cell line
Method: However, there have been minimal clinical benefits for HR-proficient cancers^37-41. Since zelpolib can inhibit HR, we explored the effect of zelpolib in combination with PARP inhibitors on HR-proficient cancer cells. The hypothesis is that zelpolib will lead to an HR-defect through inhibition of Pol δ and render HR-proficient cells sensitive to PARP inhibition. […] The cells were treated with increasing concentrations of PARP inhibitor Niraparib (FIG. 5B) or Rucaparib (FIG. 5C) in the absence or presence of 2.5 μM zelpolib for 48 hrs. The number of cells were then analyzed by MTT assay.
(§1) Human cancer cells (5×10^3-7.5×10^3) were initially seeded in 96-well plates (Cellstar) containing 0.2 ml media per well. After 24 hrs, these cells were treated with variable concentrations drug combinations for 48-72 hrs. Subsequently, 4,5-dimethylthiazol-2-yl-2,5-diphenyltetrazolium bromide (MTT) (20 μl of 5 mg/ml) was added to each well for 3 hrs. Formazan crystals were then dissolved in 150 μl DMSO and optical density was read at 490 nm^25. All experiments were performed in triplicates. Results were analyzed by GraphPad Prism. Data represent mean value±SEM for each concentration of inhibitor combinations.

MCF7 cells = assay: Cell proliferation assay, MTT method; assay type: cell-based, human; conditions: 72 h
Source text: DNA replication precedes cell division. Thus, cancer cells cannot divide and proliferate without successful chromosomal duplication. A DNA polymerase inhibitor should inhibit cancer cell proliferation. We characterized the antiproliferative properties of zelpolib on a number of cell lines originated from pancreatic cancer (BxPC-3) and breast cancer (MCF7 for ER+ breast cancer). In addition, we developed a cisplatin resistant subline of a pancreatic cancer cell line, R-BxPC3 for our studies as well. We used the MTT method^25 for analyzing cell proliferation. This assay is based on the reduction of 3-(4,5-dimethylthiazol-2-yl)-2,5-diphenyltetrazolium bromide by live cells to an insoluble formazon, which were subsequently dissolved in DMSO and quantified by UV absorbance. Therefore, the cell number is proportional to the optical density in the established linear region. […] The plateau phenomena indicate inhibition of proliferation without cell killing, similar to these observed from hydroxyurea^26, aphidicolin^27, and to a certain extent, methotrexate treatments^28. Direct inhibition of DNA polymerase activity provides a unique mechanism that is not employed by any of the current cancer therapeutics. We selected a number of most widely prescribed chemotherapeutics with distinct mechanisms to compare their antiproliferative potential in the 2 cancer cell lines. We included alkylating agent cisplatin, antimetabolites methotrexate and 5-flourouracil (5FU)^29-31. […] Whereas the comparison with cisplatin is biphasic.
as §1

## O=C(c1cc(Cc2n[nH]c(=O)c3ccccc23)ccc1F)N1CCN(C(=O)C2CC2)CC1 [olaparib]
[1]
  hazard ratio in progression-free survival: 0.18
  reduction in the risk of progression or death: 82%

## CNCc1ccc(-c2[nH]c3cc(F)cc4c3c2CCNC4=O)cc1 [Rucaparib]
HCC1395 cells
  sensitivity of HCC1395 cells to the PARP inhibitor alone: insensitive

## NC(=O)c1cccc2cn(-c3ccc([C@@H]4CCCNC4)cc3)nc12 [Niraparib]
HCC1395 cells; HCC1395 proliferation, 48 hrs
  Niraparib concentration with 2.5 μM zelpolib that achieves the effect of 25 μM Niraparib alone: 5 µM
HCC1395 cells
  sensitivity of HCC1395 cells to the PARP inhibitor alone: insensitive

## N.N.[Cl][Pt][Cl] [cisplatin, reference compound]
MCF7 cells
  antiproliferative activity, zelpolib versus cisplatin: more effective beyond 5 μM

Reference: patent US11324720B2, “Antiproliferative DNA polymerase inhibitor” (NEW YORK MEDICAL COLLEGE, priority 2018, dated 2022)
